Test results reported in patent publication US12084458B2, “Substituted pyridines, pyridazines, and pyrimidines as TYK2 inhibitors” (Sudo Biosciences Limited, priority 2021, dated 2024).
pIC50: −log10 of the molar value. Read-outs that look alike come from different tables or passages of the source.

Experiments:
Format in all cases: cell-based
[1] = tested on: HEK-Blue IL-23 cells (IL-23-stimulated STAT3 SEAP reporter; TYK2 JH2); assay: HEK-Blue IL-23 SEAP reporter assay for profiling TYK2 pseudokinase (JH2) inhibition; conditions: 10 ng/mL human recombinant IL-23, SEAP reporter, read-out: IL23 (TYK2 inhibitory activity, IC50)
In short: (§1)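 Pretreatment with diluted compound lasted 60 min, after which IL-23 (10 ng/mL) or IFNα (1 ng/mL), both human recombinant, drove STAT3 or STAT1 reporter activity for 22-24 h or 16-18 h respectively. QUANTI-Blue detected the secreted phosphatase.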

[2] = tested on: HEK-Blue IL-2 reporter cells (IL-2-stimulated STAT5 SEAP reporter); assay: HEK-Blue IL-2 SEAP reporter assay for determining selectivity; conditions: 4 ng/mL human recombinant IL-2
Experimental: (§2) Example B-3: HEK-Blue™ IL-2 and IFNγ Reporter Assays for Determining Selectivity
(§3) HEK-Blue™ IL-2 and IFNγ reporter cells with a stably-integrated cytokine receptor and STAT5 or STAT1 express STAT-inducible secreted embryonic alkaline phosphatase (SEAP) reporter gene upon cytokine stimulation. These cells were plated in DMEM (Gibco) containing 10% heat-inactivated FBS (Gibco) and 100 U/mL PenStrep (Gibco) at 37° C. under 5% CO2 conditions for 20-22 hours. The cells were then pretreated with serially diluted test compounds for 60 min prior to stimulation with either 4 ng/mL human recombinant IL-2 (Miltenyl Biotech) or 50 ng/mL human recombinant IFNγ (InvivoGen) for 24 hours. SEAP induction was measured using the QUANTI-Blue™ Solution (InvivoGen) according to the manufacturer's instructions.

[3] = tested on: HEK-Blue IFNγ reporter cells (IFNγ-stimulated STAT1 SEAP reporter); assay: HEK-Blue IFNγ SEAP reporter assay for determining selectivity; conditions: 50 ng/mL human recombinant IFNγ, read-out: IFN-γ (SEAP selectivity, IC50)
Experimental: as §2, §3

[4] = tested on: HEK-Blue IFNα/β cells (IFNα-stimulated STAT1 SEAP reporter; TYK2 JH2); assay: HEK-Blue IFNα/β SEAP reporter assay for profiling TYK2 pseudokinase (JH2) inhibition; conditions: 1 ng/mL human recombinant IFNα, read-out: IFNα (TYK2 inhibitory activity, IC50)
In short: as §1

| SMILES | pIC50 [1] | pIC50 [2] | pIC50 ([3]; Homo sapiens, HEK-Blue) | pIC50 ([4]; Homo sapiens, HEK-Blue) | pIC50 [3] | pIC50 [4] |
| --- | --- | --- | --- | --- | --- | --- |
| [2H]C([2H])([2H])NC(=O)c1nnc(NC(=O)[C@@H]2CC2(F)F)cc1Nc1nccc2c1N(C)Cc1nn(C)nc1-2 [Compound 68, (S)-6-(2,2-difluorocyclopropane-1-carboxamido)-4-((2,5-dimethyl-4,5-dihydro-2H-[1,2,3]triazolo[4,5-c][1,7]naphthyridin-6-yl)amino)-N-(methyl-d3)pyridazine-3-carboxamide] | > 7.52 | < 6.00 | 6.00 to 6.52 | > 7.52 | – | – |
| [2H]C([2H])([2H])NC(=O)c1cnc(NC(=O)C2CC2)cc1Nc1nccc2c1N(C)Cc1nn(C([2H])([2H])[2H])nc1-2 [Compound 92, 6-(cyclopropanecarboxamido)-N-(methyl-d3)-4-((5-methyl-2-(methyl-d3)-4,5-dihydro-2H-[1,2,3]triazolo[4,5-c][1,7]naphthyridin-6-yl)amino)nicotinamide] | > 7.52 | 6.00 to 6.52 | 6.52 to 7.52 | > 7.52 | – | – |
| [2H]C([2H])([2H])NC(=O)c1nnc(NC(=O)NC)cc1Nc1nccc2c1N(C)[C@@H](C)c1nn(C)nc1-2 (single isomer, unassigned) [Compound 100] | > 7.52 | < 6.00 | < 6.00 | > 7.52 | – | – |
| [2H]C([2H])([2H])NC(=O)c1nnc(NC(=O)NC)cc1Nc1cccc2c1N(C)Cc1nc(C)nn1-2 [Compound 19, 4-((2,5-dimethyl-4,5-dihydro-[1,2,4]triazolo[1,5-a]quinoxalin-6-yl)amino)-N-(methyl-d3)-6-(3-methylureido)pyridazine-3-carboxamide] | > 7.52 | < 6.00 | 6.00 to 6.52 | 6.52 to 7.52 | – | – |
| [2H]C([2H])([2H])NC(=O)c1nnc(NC(=O)C2CC2)cc1Nc1nccc2c1N(C)Cc1nn(CC)nc1-2 [Compound 93, 6-(cyclopropanecarboxamido)-4-((2-ethyl-5-methyl-4,5-dihydro-2H-[1,2,3]triazolo[4,5-c][1,7]naphthyridin-6-yl)amino)-N-(methyl-d3)pyridazine-3-carboxamide] | > 7.52 | 6.00 to 6.52 | 6.00 to 6.52 | > 7.52 | – | – |
| [2H]C([2H])([2H])NC(=O)c1cnc(NC(=O)C2CC2)cc1Nc1cccc2c1N(C)C([2H])([2H])c1nc(C)nn1-2 [Compound 36, 6-(cyclopropanecarboxamido)-4-((2,5-dimethyl-4,5-dihydro-[1,2,4]triazolo[1,5-a]quinoxalin-6-yl-4,4-d2)amino)-N-(methyl-d3)nicotinamide] | > 7.52 | < 6.00 | 6.00 to 6.52 | > 7.52 | – | – |
| [2H]C([2H])([2H])NC(=O)c1nnc(NC(=O)NC)cc1Nc1cccc2c1N(C)C([2H])([2H])c1nn(C)nc1-2 [Compound 54, 4-((2,5-dimethyl-4,5-dihydro-2H-[1,2,3]triazolo[4,5-c]quinolin-6-yl-4,4-d2)amino)-N-(methyl-d3)-6-(3-methylureido)pyridazine-3-carboxamide] | > 7.52 | < 6.00 | 6.00 to 6.52 | > 7.52 | – | – |
| [2H]C([2H])([2H])NC(=O)c1nnc(Nc2cc(C)nc(C)n2)cc1Nc1cccc2c1N(C)Cc1nc(C)nn1-2 [Compound 15, 4-((2,5-dimethyl-4,5-dihydro-[1,2,4]triazolo[1,5-a]quinoxalin-6-yl)amino)-6-((2,6-dimethylpyrimidin-4-yl)amino)-N-(methyl-d3)pyridazine-3-carboxamide] | > 7.52 | 6.00 to 6.52 | > 7.52 | > 7.52 | – | – |
| [2H]C([2H])([2H])NC(=O)c1cnc(NC(=O)C2CC2)cc1Nc1ccc(F)c2c1N(C)Cc1nc(C)nn1-2 [Compound 107, 6-(cyclopropanecarboxamido)-4-((9-fluoro-2,5-dimethyl-4,5-dihydro-[1,2,4]triazolo[1,5-a]quinoxalin-6-yl)amino)-N-(methyl-d3)nicotinamide] | > 7.52 | < 6.00 | < 6.00 | 6.52 to 7.52 | – | – |
| [2H]C([2H])([2H])NC(=O)c1nnc(NC(=O)C2CC2)cc1Nc1cc(F)cc2c1N(C)[C@@H](C)c1nc(C)nn1-2 (single isomer, unassigned) [Compound 111] | > 7.52 | < 6.00 | < 6.00 | 6.52 to 7.52 | – | – |
| [2H]C([2H])([2H])NC(=O)c1cnc(NC(=O)C2CC2)cc1Nc1nccc2c1N(C)C([2H])([2H])c1nn(C)nc1-2 [Compound 97, 6-(cyclopropanecarboxamido)-4-((2,5-dimethyl-4,5-dihydro-2H-[1,2,3]triazolo[4,5-c][1,7]naphthyridin-6-yl-4,4-d2)amino)-N-(methyl-d3)nicotinamide] | > 7.52 | < 6.00 | 6.00 to 6.52 | > 7.52 | – | – |
| [2H]C([2H])([2H])NC(=O)c1nnc(NC(=O)C2CC2)cc1Nc1nccc2c1N(C)C([2H])([2H])c1nn(C)nc1-2 [Compound 96, 6-(cyclopropanecarboxamido)-4-((2,5-dimethyl-4,5-dihydro-2H-[1,2,3]triazolo[4,5-c][1,7]naphthyridin-6-yl-4,4-d2)amino)-N-(methyl-d3)pyridazine-3-carboxamide] | > 7.52 | 6.00 to 6.52 | 6.52 to 7.52 | > 7.52 | – | – |
| [2H]C([2H])([2H])NC(=O)c1nnc(NC(=O)C2CC2)cc1Nc1cccc2c1N(C)[C@@H](C)c1nc(C)nn1-2 (single isomer, unassigned) [Compound 22] | > 7.52 | < 6.00 | 6.00 to 6.52 | > 7.52 | – | – |
| [2H]C([2H])([2H])NC(=O)c1nnc(NC(=O)C2CC2)cc1Nc1cccc2c1N(C)[C@@H](C)c1nn(C)nc1-2 (single isomer, unassigned) [Compound 60] | > 7.52 | < 6.00 | < 6.00 | > 7.52 | – | – |
| [2H]C([2H])([2H])NC(=O)c1nnc(NC(=O)[C@H]2CC2(F)F)cc1Nc1nccc2c1N(C)Cc1nn(C)nc1-2 [Compound 71, (R)-6-(2,2-difluorocyclopropane-1-carboxamido)-4-((2,5-dimethyl-4,5-dihydro-2H-[1,2,3]triazolo[4,5-c][1,7]naphthyridin-6-yl)amino)-N-(methyl-d3)pyridazine-3-carboxamide] | > 7.52 | < 6.00 | – | – | 6.52 to 7.52 | > 7.52 |
| [2H]C([2H])([2H])NC(=O)c1nnc(NC(=O)NC)cc1Nc1nccc2c1N(C)Cc1nn(C)nc1-2 [Compound 108, 4-((2,5-dimethyl-4,5-dihydro-2H-[1,2,3]triazolo[4,5-c][1,7]naphthyridin-6-yl)amino)-N-(methyl-d3)-6-(3-methylureido)pyridazine-3-carboxamide] | > 7.52 | 6.52 to 7.52 | < 6.00 | > 7.52 | – | – |
| [2H]C([2H])([2H])NC(=O)c1nnc(NC(=O)C2CC2)cc1Nc1cccc2c1N(C)[C@H](C([2H])([2H])[2H])c1nc(C)nn1-2 [Compound 44, (R)-6-(cyclopropanecarboxamido)-4-((2,5-dimethyl-4-(methyl-d3)-4,5-dihydro-[1,2,4]triazolo[1,5-a]quinoxalin-6-yl)amino)-N-(methyl-d3)pyridazine-3-carboxamide] | > 7.52 | < 6.00 | < 6.00 | > 7.52 | – | – |
